The results in this text go back to US8816085B2 (Takeda GmbH, priority 2009, dated 2014).

Each structure is given as a SMILES string. Bounds are passed on as bounds.

For the assay, the target named is T1, PDE5A1 (human PDE5 from platelets) (Homo sapiens, UniProt O76074).
T1 construct: from tissue; host or cells: platelets from fresh blood of human donors (10,000 g supernatant of sonified platelets)
Nature of the assay: Inhibition of type 5 phosphodiesterase (PDE5) activity, modified SPA test. In kind it is biochemical. The conditions noted are these: PDE5-containing human platelet lysate, 0.5 μM cGMP, value classes, read-out: PDE5A1 inhibitory values [measured as −logIC50 (mol/l)] (converted). A digest of the protocol: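 Enzyme source: human platelet lysate (10,000 g supernatant), with 1 μM motapizone and 10 nM PDE2 inhibitor present. SPA format in 20 mM Tris pH 7.4, 5 mM Mg2+, 0.5 μM cGMP with [3H]cGMP tracer; 5 min preincubation at 37 °C, 15 min reaction, stopped with IBMX-containing beads. IC50 by non-linear regression.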

Take `CCC(=O)N1CCC(NC(=O)c2c(C)[nH]c3c(-c4cc(C)ccc4OCC4CC4)ccnc23)CC1` [Example E53, 7-[2-(Cyclopropylmethoxy)-5-methylphenyl]-2-methyl-N-(1-propanoylpiperidin-4-yl)-1H-pyrrolo[3,2-b]pyridine-3-carboxamide]: the IC50 was 1 to 10 nM. Turning to `COCC(=O)N1CCC(NC(=O)c2c(C)[nH]c3c(-c4cc(C)ccc4OCC4CC4)ccnc23)CC1` [Example E54, 7-[2-(Cyclopropylmethoxy)-5-methylphenyl]-N-[1-(methoxyacetyl)piperidin-4-yl]-2-methyl-1H-pyrrolo[3,2-b]pyridine-3-carboxamide], the IC50 was 1 to 10 nM. On to `CC(=O)N[C@H]1CC[C@H](NC(=O)c2c(C)[nH]c3c(-c4cc(C)ccc4OCC4CC4)ccnc23)CC1` [Example E55, N-[trans-4-(Acetylamino)cyclohexyl]-7-[2-(cyclopropylmethoxy)-5-methylphenyl]-2-methyl-1H-pyrrolo[3,2-b]pyridine-3-carboxamide], for which the IC50 is 1 to 10 nM. For `CCC(=O)N[C@H]1CC[C@H](NC(=O)c2c(C)[nH]c3c(-c4cc(C)ccc4OCC4CC4)ccnc23)CC1` [Example E56, 7-[2-(Cyclopropylmethoxy)-5-methylphenyl]-2-methyl-N-[trans-4-(propanoylamino)cyclohexyl]-1H-pyrrolo[3,2-b]pyridine-3-carboxamide], the IC50 is 1 to 10 nM. Consider `COCC(=O)N[C@H]1CC[C@H](NC(=O)c2c(C)[nH]c3c(-c4cc(C)ccc4OCC4CC4)ccnc23)CC1` [Example E57, 7-[2-(Cyclopropylmethoxy)-5-methylphenyl]-N-{trans-4-[(methoxyacetyl)amino]cyclohexyl}-2-methyl-1H-pyrrolo[3,2-b]pyridine-3-carboxamide], for which the IC50 was 1 to 10 nM. As to `CC(=O)N[C@H]1CC[C@@H](NC(=O)c2c(C)[nH]c3c(-c4cc(C)ccc4OCC4CC4)ccnc23)CC1` [Example E58, N-[cis-4-(Acetylamino)cyclohexyl]-7-[2-(cyclopropylmethoxy)-5-methylphenyl]-2-methyl-1H-pyrrolo[3,2-b]pyridine-3-carboxamide], the IC50 is 1 to 10 nM. The result for `CCC(=O)N[C@H]1CC[C@@H](NC(=O)c2c(C)[nH]c3c(-c4cc(C)ccc4OCC4CC4)ccnc23)CC1` [Example E59, 7-[2-(Cyclopropylmethoxy)-5-methylphenyl]-2-methyl-N-[cis-4-(propanoylamino)cyclohexyl]-1H-pyrrolo[3,2-b]pyridine-3-carboxamide] reads 1 to 10 nM; that for `COCC(=O)N[C@H]1CC[C@@H](NC(=O)c2c(C)[nH]c3c(-c4cc(C)ccc4OCC4CC4)ccnc23)CC1` [Example E60, 7-[2-(Cyclopropylmethoxy)-5-methylphenyl]-N-{cis-4-[(methoxyacetyl)amino]cyclohexyl}-2-methyl-1H-pyrrolo[3,2-b]pyridine-3-carboxamide], 1 to 10 nM; that for `COc1cc(-c2ccnc3c(C(=O)NC4CCN(C(C)=O)CC4)c(C)[nH]c23)c(OCC2CC2)cc1F` [Example E61, N-(1-Acetylpiperidin-4-yl)-7-[2-(cyclopropylmethoxy)-4-fluoro-5-methoxyphenyl]-2-methyl-1H-pyrrolo[3,2-b]pyridine-3-carboxamide], < 1 nM. The result for `CCC(=O)N1CCC(NC(=O)c2c(C)[nH]c3c(-c4cc(OC)c(F)cc4OCC4CC4)ccnc23)CC1` [Example E62, 7-[2-(Cyclopropylmethoxy)-4-fluoro-5-methoxyphenyl]-2-methyl-N-(1-propanoylpiperidin-4-yl)-1H-pyrrolo[3,2-b]pyridine-3-carboxamide] reads < 1 nM. Consider `COCC(=O)N1CCC(NC(=O)c2c(C)[nH]c3c(-c4cc(OC)c(F)cc4OCC4CC4)ccnc23)CC1` [Example E63, 7-[2-(Cyclopropylmethoxy)-4-fluoro-5-methoxyphenyl]-N-[1-(methoxyacetyl)piperidin-4-yl]-2-methyl-1H-pyrrolo[3,2-b]pyridine-3-carboxamide], for which the IC50 was < 1 nM. Consider `COc1cc(-c2ccnc3c(C(=O)N[C@H]4CC[C@H](NC(C)=O)CC4)c(C)[nH]c23)c(OCC2CC2)cc1F` [Example E64, N-[trans-4-(Acetylamino)cyclohexyl]-7-[2-(cyclopropylmethoxy)-4-fluoro-5-methoxyphenyl]-2-methyl-1H-pyrrolo[3,2-b]pyridine-3-carboxamide], for which the IC50 was < 1 nM. For the compound `CCC(=O)N[C@H]1CC[C@H](NC(=O)c2c(C)[nH]c3c(-c4cc(OC)c(F)cc4OCC4CC4)ccnc23)CC1` [Example E65, 7-[2-(Cyclopropylmethoxy)-4-fluoro-5-methoxyphenyl]-2-methyl-N-[trans-4-(propanoylamino)cyclohexyl]-1H-pyrrolo[3,2-b]pyridine-3-carboxamide], the IC50 is < 1 nM. Turning to `COCC(=O)N[C@H]1CC[C@H](NC(=O)c2c(C)[nH]c3c(-c4cc(OC)c(F)cc4OCC4CC4)ccnc23)CC1` [Example E66, 7-[2-(Cyclopropylmethoxy)-4-fluoro-5-methoxyphenyl]-N-{trans-4-[(methoxyacetyl)amino]cyclohexyl}-2-methyl-1H-pyrrolo[3,2-b]pyridine-3-carboxamide], the IC50 is < 1 nM. The result for `COc1cc(-c2ccnc3c(C(=O)N[C@H]4CC[C@@H](NC(C)=O)CC4)c(C)[nH]c23)c(OCC2CC2)cc1F` [Example E67, N-[cis-4-(Acetylamino)cyclohexyl]-7-[2-(cyclopropylmethoxy)-4-fluoro-5-methoxyphenyl]-2-methyl-1H-pyrrolo[3,2-b]pyridine-3-carboxamide] reads < 1 nM; that for `CCC(=O)N[C@H]1CC[C@@H](NC(=O)c2c(C)[nH]c3c(-c4cc(OC)c(F)cc4OCC4CC4)ccnc23)CC1` [Example E68, 7-[2-(Cyclopropylmethoxy)-4-fluoro-5-methoxyphenyl]-2-methyl-N-[cis-4-(propanoylamino)cyclohexyl]-1H-pyrrolo[3,2-b]pyridine-3-carboxamide], < 1 nM; that for `COCC(=O)N[C@H]1CC[C@@H](NC(=O)c2c(C)[nH]c3c(-c4cc(OC)c(F)cc4OCC4CC4)ccnc23)CC1` [Example E69, 7-[2-(Cyclopropylmethoxy)-4-fluoro-5-methoxyphenyl]-N-{cis-4-[(methoxyacetyl)amino]cyclohexyl}-2-methyl-1H-pyrrolo[3,2-b]pyridine-3-carboxamide], < 1 nM. For `COc1cc(OCC2CC2)c(-c2ccnc3c(C(=O)NC4CCN(C(C)=O)CC4)c(C)[nH]c23)cc1F` [Example E76, N-(1-Acetylpiperidin-4-yl)-7-[2-(cyclopropylmethoxy)-5-fluoro-4-methoxyphenyl]-2-methyl-1H-pyrrolo[3,2-b]pyridine-3-carboxamide], the IC50 is < 1 nM. The result for `CCC(=O)N1CCC(NC(=O)c2c(C)[nH]c3c(-c4cc(F)c(OC)cc4OCC4CC4)ccnc23)CC1` [Example E77, 7-[2-(Cyclopropylmethoxy)-5-fluoro-4-methoxyphenyl]-2-methyl-N-(1-propionylpiperidin-4-yl)-1H-pyrrolo[3,2-b]pyridine-3-carboxamide] reads < 1 nM; that for `COCC(=O)N1CCC(NC(=O)c2c(C)[nH]c3c(-c4cc(F)c(OC)cc4OCC4CC4)ccnc23)CC1` [Example E78, 7-[2-(Cyclopropylmethoxy)-5-fluoro-4-methoxyphenyl]-N-[1-(methoxyacetyl)piperidin-4-yl]-2-methyl-1H-pyrrolo[3,2-b]pyridine-3-carboxamide], < 1 nM. With `COc1cc(OCC2CC2)c(-c2ccnc3c(C(=O)N[C@H]4CC[C@H](NC(C)=O)CC4)c(C)[nH]c23)cc1F` [Example E79, N-(trans-4-Acetamidocyclohexyl)-7-[2-(cyclopropylmethoxy)-5-fluoro-4-methoxyphenyl]-2-methyl-1H-pyrrolo[3,2-b]pyridine-3-carboxamide], the IC50 is < 1 nM. `CCC(=O)N[C@H]1CC[C@H](NC(=O)c2c(C)[nH]c3c(-c4cc(F)c(OC)cc4OCC4CC4)ccnc23)CC1` [Example E80, 7-[2-(Cyclopropylmethoxy)-5-fluoro-4-methoxyphenyl]-2-methyl-N-[trans-4-(propionylamino)cyclohexyl]-1H-pyrrolo[3,2-b]pyridine-3-carboxamide]: the IC50 is < 1 nM. For `COCC(=O)N[C@H]1CC[C@H](NC(=O)c2c(C)[nH]c3c(-c4cc(F)c(OC)cc4OCC4CC4)ccnc23)CC1` [Example E81, 7-[2-(Cyclopropylmethoxy)-5-fluoro-4-methoxyphenyl]-N-{trans-4-[(methoxyacetyl)amino]cyclohexyl}-2-methyl-1H-pyrrolo[3,2-b]pyridine-3-carboxamide], the IC50 is < 1 nM. The result for `COc1cc(OCC2CC2)c(-c2ccnc3c(C(=O)N[C@H]4CC[C@@H](NC(C)=O)CC4)c(C)[nH]c23)cc1F` [Example E82, N-(cis-4-Acetamidocyclohexyl)-7-[2-(cyclopropylmethoxy)-5-fluoro-4-methoxyphenyl]-2-methyl-1H-pyrrolo[3,2-b]pyridine-3-carboxamide] reads < 1 nM.

`CCC(=O)N[C@H]1CC[C@@H](NC(=O)c2c(C)[nH]c3c(-c4cc(F)c(OC)cc4OCC4CC4)ccnc23)CC1` [Example E83, 7-[2-(Cyclopropylmethoxy)-5-fluoro-4-methoxyphenyl]-2-methyl-N-[cis-4-(propionylamino)cyclohexyl]-1H-pyrrolo[3,2-b]pyridine-3-carboxamide]: the IC50 was < 1 nM. The result for `COCC(=O)N[C@H]1CC[C@@H](NC(=O)c2c(C)[nH]c3c(-c4cc(F)c(OC)cc4OCC4CC4)ccnc23)CC1` [Example E84, 7-[2-(Cyclopropylmethoxy)-5-fluoro-4-methoxyphenyl]-N-{cis-4-[(methoxyacetyl)amino]cyclohexyl}-2-methyl-1H-pyrrolo[3,2-b]pyridine-3-carboxamide] reads < 1 nM.
